These results are taken from patent US20240246951A1, “COMPOUND HAVING BIOLOGICAL ACTIVITY SUCH AS ANTIVIRAL ACTIVITY” (NATIONAL CENTER FOR GLOBAL HEALTH AND MEDICINE, priority 2021, published 2024).

The experiment deals with SARS-CoV-2 variants (TX7-501, TY8-612, QHN001, K1734, K5356). The class given is cell-based. The settings on record: variants of Table 4 instead of WK-521; data not shown.

Regarding `CC(C)(C)[C@H](NC(=O)C(F)(F)F)C(=O)N1C[C@H]2[C@@H]([C@H]1C(=O)N[C@@H](C[C@@H]1CCNC1=O)C(=O)c1nc3c(F)cccc3s1)C2(C)C` [Compound 245, (1R,2S,5S)-3-((S)-3,3-dimethyl-2-(2,2,2-trifluoroacetamido)butanoyl)-N-((S)-1-(4-fluorobenzo[d]thiazol-2-yl)-1-oxo-3-((S)-2-oxopyrrolidin-3-yl)propan-2-yl)-6,6-dimethyl-3-azabicyclo[3.1.0]hexane-2-carboxamide], the “antiviral activity against variants” value was “excellent antiviral activities”.
